Blank lines part the entries; values can stand above or below the compound they belong to. Calls of active or inactive are those of the source.
Assays:
[1] = biological target: T1, Neuropeptides B/W receptor type 1 (Homo sapiens, UniProt P48145); experiment: human NPBW1 receptor blockade, IC50 – cell-based, fluorescence, dose response, set 5, late-stage follow-up (AID 588566); type: functional
T1 sequence (P48145 whole entry): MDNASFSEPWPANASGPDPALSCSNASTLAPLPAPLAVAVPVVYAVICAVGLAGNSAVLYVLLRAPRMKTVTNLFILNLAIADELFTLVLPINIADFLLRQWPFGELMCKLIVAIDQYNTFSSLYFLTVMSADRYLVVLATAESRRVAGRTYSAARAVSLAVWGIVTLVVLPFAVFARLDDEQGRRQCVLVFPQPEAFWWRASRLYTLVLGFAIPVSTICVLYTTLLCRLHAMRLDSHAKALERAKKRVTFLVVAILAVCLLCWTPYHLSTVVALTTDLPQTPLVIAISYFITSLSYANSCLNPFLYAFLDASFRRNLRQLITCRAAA

[2] = biological target: Melanin-concentrating hormone receptor 1 (Homo sapiens, UniProt Q99705); experiment: Late-stage fluorescence-based counterscreen for antagonists of the G-protein coupled receptor 7 (GPR7): cell-based dose response assay to identify antagonists of the melanin-concentrating hormone receptor 1 (MCHR1) Set 5.; type: functional
Chain of Melanin-concentrating hormone receptor 1 (Q99705 whole entry): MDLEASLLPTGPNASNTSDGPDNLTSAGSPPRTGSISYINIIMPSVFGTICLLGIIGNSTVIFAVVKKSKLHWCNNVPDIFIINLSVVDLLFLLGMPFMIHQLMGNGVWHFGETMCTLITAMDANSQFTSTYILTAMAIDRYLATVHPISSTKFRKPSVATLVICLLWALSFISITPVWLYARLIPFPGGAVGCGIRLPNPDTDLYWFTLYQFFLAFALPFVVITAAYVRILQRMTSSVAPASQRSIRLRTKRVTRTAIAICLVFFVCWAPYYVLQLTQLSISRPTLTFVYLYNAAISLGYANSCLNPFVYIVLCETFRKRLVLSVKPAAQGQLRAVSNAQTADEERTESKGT

[3] = fluconazole-exposed Candida albicans growth modulators – fluorescence, retest, confirmation (AID 2467); type: functional, cell-based
[4] = NIH-3T3 fibroblast cytotoxicity, dose response, cytotoxicity control, cell-based, fluorescence, Alamar Blue, secondary assay (AID 2327); type: functional;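 further: NIH-3T3 mouse fibroblasts cultured with fluconazole at 8 µg/mL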
[5] = biological target: Multidrug resistance protein CDR2 (Candida albicans (strain SC5314 / ATCC MYA-2876) (Yeast), UniProt P78595); experiment: inhibition of Nile Red efflux via Candida CDR2 – S. cerevisiae AD1-8u, singleplex, Cherry Pick1 hits, dose response (AID 588604); type: functional
Chain of Multidrug resistance protein CDR2 (P78595 whole entry): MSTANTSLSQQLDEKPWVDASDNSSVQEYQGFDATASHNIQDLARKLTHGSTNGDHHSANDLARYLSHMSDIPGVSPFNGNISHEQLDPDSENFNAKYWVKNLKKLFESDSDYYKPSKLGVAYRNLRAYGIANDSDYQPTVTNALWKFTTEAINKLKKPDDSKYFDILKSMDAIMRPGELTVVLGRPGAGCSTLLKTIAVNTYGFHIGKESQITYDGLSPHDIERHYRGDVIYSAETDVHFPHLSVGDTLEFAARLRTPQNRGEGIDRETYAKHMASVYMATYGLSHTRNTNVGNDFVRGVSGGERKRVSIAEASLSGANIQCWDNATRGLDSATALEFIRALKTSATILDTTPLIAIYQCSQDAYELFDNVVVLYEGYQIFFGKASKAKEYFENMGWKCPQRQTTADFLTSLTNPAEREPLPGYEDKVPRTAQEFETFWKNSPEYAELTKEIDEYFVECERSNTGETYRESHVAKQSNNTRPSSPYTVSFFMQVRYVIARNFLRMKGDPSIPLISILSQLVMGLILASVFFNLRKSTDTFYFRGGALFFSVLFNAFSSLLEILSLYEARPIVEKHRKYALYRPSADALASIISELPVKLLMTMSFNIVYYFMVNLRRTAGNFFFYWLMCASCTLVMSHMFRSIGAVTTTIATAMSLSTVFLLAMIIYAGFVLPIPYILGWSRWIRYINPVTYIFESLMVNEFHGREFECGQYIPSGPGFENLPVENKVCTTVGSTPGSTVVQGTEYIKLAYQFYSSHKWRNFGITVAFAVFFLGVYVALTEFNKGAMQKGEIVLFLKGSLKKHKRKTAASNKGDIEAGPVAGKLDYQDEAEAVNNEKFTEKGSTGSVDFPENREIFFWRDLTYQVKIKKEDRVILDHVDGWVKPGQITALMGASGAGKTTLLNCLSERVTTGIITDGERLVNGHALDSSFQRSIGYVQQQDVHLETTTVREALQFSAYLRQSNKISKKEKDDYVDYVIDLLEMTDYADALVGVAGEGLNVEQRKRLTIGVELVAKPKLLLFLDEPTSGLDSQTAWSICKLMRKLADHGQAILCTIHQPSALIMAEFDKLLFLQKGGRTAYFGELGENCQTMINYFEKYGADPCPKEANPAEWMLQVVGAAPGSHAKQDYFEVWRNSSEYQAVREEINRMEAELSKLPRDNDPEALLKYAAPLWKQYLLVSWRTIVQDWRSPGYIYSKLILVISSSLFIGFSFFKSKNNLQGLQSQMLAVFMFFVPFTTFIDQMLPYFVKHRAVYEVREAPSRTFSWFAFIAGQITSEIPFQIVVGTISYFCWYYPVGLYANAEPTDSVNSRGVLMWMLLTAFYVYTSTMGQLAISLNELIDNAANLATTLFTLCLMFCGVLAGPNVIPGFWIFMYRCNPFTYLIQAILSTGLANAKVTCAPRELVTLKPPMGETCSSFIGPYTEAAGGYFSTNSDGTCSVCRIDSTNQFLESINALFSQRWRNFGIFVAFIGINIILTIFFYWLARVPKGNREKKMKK

[6] = biological target: T2, DNA repair protein RAD52 homolog (Homo sapiens, UniProt P43351); type: functional, biochemical
T2 sequence (P43351 whole entry): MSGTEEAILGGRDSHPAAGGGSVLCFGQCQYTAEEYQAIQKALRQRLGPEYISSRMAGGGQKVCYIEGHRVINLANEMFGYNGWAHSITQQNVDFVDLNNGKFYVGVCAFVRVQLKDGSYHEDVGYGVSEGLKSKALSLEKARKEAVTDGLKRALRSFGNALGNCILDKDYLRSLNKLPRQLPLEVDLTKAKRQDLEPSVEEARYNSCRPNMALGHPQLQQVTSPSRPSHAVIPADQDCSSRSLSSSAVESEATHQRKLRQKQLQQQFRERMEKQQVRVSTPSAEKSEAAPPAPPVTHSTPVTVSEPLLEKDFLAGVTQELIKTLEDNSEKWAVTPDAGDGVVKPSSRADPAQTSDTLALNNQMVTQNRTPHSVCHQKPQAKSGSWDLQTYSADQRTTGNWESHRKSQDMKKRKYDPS

[7] = biological target: T3, High affinity choline transporter 1 (Homo sapiens, UniProt Q9GZV3); experiment: human choline transporter blockers, potency – cell-based, 10-point CRC, membrane potential dye, dose response (AID 588401); type: functional;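 further: membrane potential dye fluorescence of choline-evoked depolarization via CHT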
T3 sequence (Q9GZV3 whole entry): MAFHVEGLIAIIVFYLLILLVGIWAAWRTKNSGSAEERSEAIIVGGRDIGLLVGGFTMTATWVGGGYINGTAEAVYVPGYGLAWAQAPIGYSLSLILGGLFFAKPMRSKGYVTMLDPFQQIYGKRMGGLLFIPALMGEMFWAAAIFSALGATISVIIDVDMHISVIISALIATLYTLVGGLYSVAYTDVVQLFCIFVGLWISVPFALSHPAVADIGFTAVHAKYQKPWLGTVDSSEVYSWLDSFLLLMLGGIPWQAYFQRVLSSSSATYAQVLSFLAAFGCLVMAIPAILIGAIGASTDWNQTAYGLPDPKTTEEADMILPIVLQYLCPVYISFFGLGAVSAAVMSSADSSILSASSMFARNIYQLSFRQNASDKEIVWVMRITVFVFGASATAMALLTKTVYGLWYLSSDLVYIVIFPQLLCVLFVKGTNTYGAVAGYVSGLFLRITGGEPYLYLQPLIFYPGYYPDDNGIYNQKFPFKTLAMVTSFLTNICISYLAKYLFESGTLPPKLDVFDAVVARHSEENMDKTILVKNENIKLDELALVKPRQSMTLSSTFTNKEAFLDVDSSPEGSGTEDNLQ

[8] = biological target: T3, High affinity choline transporter 1; experiment: human choline transporter blockers, potency – cell-based, 5-point CRC, membrane potential dye, dose response (AID 504840); type: functional

IC50 [1]: 11.8 µM (inactive)
IC50 [2]: > 20 µM (inactive)
SMILES: CCOC(=O)C(C(N)=O)c1c(Cl)cnn(Cc2cccc3ccccc23)c1=O (stereo not drawn)

SMILES: Cc1c(CCOC(=O)CC23CC4CC(CC(C)(C4)C2)C3)sc[n+]1Cc1ccc([N+](=O)[O-])cc1
EC50 [3]: > 38 µM (not active)
EC50 [4]: > 150 µM (inactive)
EC50 [5]: 10.9 µM (active)
AC50 [6]: 15.6 µM (active)

IC50 [7]: 4.74 µM (active)
IC50 [8]: 8.13 µM (active)
SMILES: COc1ccc(C(=O)NCCCSC)cc1OC1CCN(C(C)C)CC1
